What all share (type): cell-based, human
For test [1], the system named is HAS2 (hyaluronic acid synthase 2). The test is described as follows: UVB-induced senescence assay: HAS2 gene expression (qPCR). As to conditions: UVB-irradiated HDF. The procedure:
In the second approach, we established a method for inducing senescence in these cells with 2 cycles of UVB irradiation 72h apart (Figure 2A). The use of UVA to induce senescence was discarded due to its considerably longer time requirement, being unsuitable to screen 30 compounds within a reasonable period. Cells were treated with these compounds throughout the duration of the assay and cellular senescence was monitored with two markers: accumulation of SA-β-galactosidase (SA-β-Gal) activity, and the decrease in expression of HAS2 (hyaluronic acid synthase 2), a previously reported marker of skin senescence.
Figure 2 (A) Schematic representation of the protocol for senescence induction using UVB irradiation. Cells were treated -/+ the compounds from day 1 to 7 after seeding, irradiated with UVB on days 2 and 5 and harvested for analysis on day 7. […] (C) Phase-contrast (left column) and bright field (right column) microscope images of SA-β-Gal staining showing non-irradiated cells, UVB-irradiated cells non-treated and treated with Gallic acid or Shikimic acid at the indicated concentrations. (D) Percentage of SA-β-Gal positive cells and (E) Relative HAS2 mRNA levels in non-irradiated cells, UVB-irradiated cells and UVB-irradiated cells treated with Gallic acid or Shikimic acid at the indicated concentrations. Student T-test, *p<0.05, **p<0.01, ***p<0.001.
RNA was extracted from cell pellets using the Total RNA Purification Kit (Norgen, Canada), according to the manufacturer’s protocol. Extracted RNA was quantified using a NanoDrop® ND-1000 UV-Vis Spectrophotometer (Thermo Fisher Scientific, USA) and 300 ng of RNA were retrotranscribed to cDNA using the PrimeScriptTM RT reagent kit (Takara Bio Inc., Japan). cDNA was diluted 1/10 in ultrapure water and qPCR mix was prepared by adding cDNA (12 ng), SYBR green supermix (Bio Rad, USA), forward and reverse primers (0.2μM). The primers and their respective sequences are listed in Supplementary Table 1. qPCR protocol included one step at 95° C for 30 s, 40 cycles at 95° C for 10s, and 60° C for 1min. The results were analyzed with Bio-Rad CFX Manager software. BACT was used as a housekeeping gene to normalize gene expression.
Senescence induction by UVB irradiation For the non-irradiation control conditions, HDF were […]
After 24h, culture medium was removed and well plates. After 24h, culture medium was removed replaced by fresh cell culture medium containing the and replaced with fresh cell culture medium containing compounds at different concentrations. After 24h, the compounds at different concentrations. […]
cell culture medium was removed, and cells were cells/plate in fresh cell culture medium containing the irradiated at 25 mJ/cm2 of UVB light (312 nm) in a Bio- compound in 6-well plates. After 3 days, cells were […]
amount of PBS. PBS was then removed and fresh cell fresh cell culture medium containing the compound in culture medium with the compound was added to each 6-well plates. After 2 days, cells were processed well. After 3 days, cells were irradiated again under the according to the qPCR, β-Gal staining, apoptosis, cell same conditions. After 2 days, cells were processed cycle or immunofluorescence protocols. according to the qPCR, β-Gal staining, apoptosis, cell cycle or immunofluorescence protocols.
On the technique in general: Quantitative PCR measures a nucleic acid by following its amplification.

The next test concerns HDF cells. The test is described as follows: Cell cycle analysis, PI staining flow cytometry. As to the method: Figure 4 (A) SRB and Trypan blue cell viability assays performed in cells treated with or without Shikimic acid (5, 10, 25 and 50 mM) for 24h. (B) Apoptosis detection using the Annexin V-FITC/PI double staining followed by flow cytometry in non-irradiated and non-treated cells, irradiated and non-treated cells and irradiated cells treated with Shikimic acid (10, 25 and 50 mM). (C) Representation and statistical analysis of the percentage of apoptotic cells in each of the conditions analyzed. (D) Cell cycle analysis using PI staining followed by flow cytometry. (E) Relative p16^INK4a mRNA levels monitored by qPCR in the indicated conditions. Student T-test, *p<0.05. (F) Immunofluorescence of γH2AX in non-irradiated and non-treated cells, irradiated and non-treated cells and irradiated cells treated with Shikimic acid (10, 25 and 50 mM). (G) Principal component analysis (PCA) on Savitzky–Golay second derivatized spectra in the fingerprint region (1800–950 cm−1) for non-irradiated cells (No UVB), irradiated non-treated cells (UVB), irradiated cells treated with Shikimic acid 25 mM (UVB SA) and irradiated cells treated with Shikimic acid 25 mM plus EX-527 1 μM (UVB SA+EX-527). Student T-test, *p<0.05, **p<0.01, ***p<0.001. (H) Beta-sheet to alpha-helix ratio obtained by curve-fitting analysis of the amide I band (1700-1600 cm-1).
Fluorescence-activated cell sorting (FACS) analyses of the cell cycle and apoptosis were carried out using, respectively, a Propidium Iodide Flow Cytometry Kit (Abcam, UK), and an Annexin V-FITC Apoptosis Staining/Detection Kit (Abcam, UK), following the manufacturer’s instructions.
Senescence induction by UVB irradiation For the non-irradiation control conditions, HDF were plated at a density of 6×10^4 cells/plate in 6-well
HDF were plated at a density of 6×10^4 cells/plate in 6- plates. After 24h, culture medium was removed and well plates. After 24h, culture medium was removed replaced by fresh cell culture medium containing the and replaced with fresh cell culture medium containing compounds at different concentrations. […]
(Flow cytometry measures light scatter and fluorescence of single cells or particles in a stream.)

Test [2] has as its system H4K16ac (the target of SIRT1 and SIRT2). The test is described as follows: Sirtuin activity assay in HDF: H4K16ac levels (Western blot). The note with it: UV conditions, -/+25mM SA -/+1μM EX-527. A general note: Immunoblotting shows a protein as a band on a membrane.

Consider `O=C(O)C1=C[C@@H](O)[C@@H](O)[C@H](O)C1` [Shikimic acid], for which the “HAS2 expression” value in test [1] is “increase in HAS2 expression”. For the same compound, in the test on HDF cells (UVB irradiation), the “frequency of polyploidies” value is “did not alter the accumulation of DNA damage or the frequency of polyploidies”. Moreover, the “cells in S-phase” value in the test with HDF cells (UVB-irradiated HDF) is “progressive increase in the number of cells in S-phase”. In the test on HDF cells (absence of UVB irradiation), the “cell cycle” value is “did not alter the cell cycle”. Besides, the “H4K16ac/H4 levels under UV-induced senescence” value in test [2] is “induced increased deacetylation of H3K9ac and H4K16ac”.
